Assay results taken from patent publication US9878982B2, “Pyridine derivatives and anti-mycobacterial use thereof” (priority 2014, dated 2018).
Converted amounts (≈) assume the structure as drawn. Where two headings read alike, the source gives them in different places.

Experiments:
[1] = test system: Mycobacterium smegmatis strain ATCC19420; assay: In vitro efficacy test using Mycobacterium smegmatis strain ATCC19420 (MIC); format: cell-based; details: Mycolicibacterium smegmatis, ATCC19420, 72 h, CA-MHB + 0.02% Tween 80, 30° C., read after 72 hours
[2] = test system: M. tuberculosis H37Rv; assay: In vitro efficacy test using the H37Rv strain, Microplate Alamar Blue Assay (MABA) MIC; format: cell-based, Mycobacterium tuberculosis; details: for MIC: Mycobacterium tuberculosis, H37RV
[3] = test system: M. tuberculosis H37R; assay: microbe, parasite or virus in culture; format: cell-based, Mycobacterium tuberculosis; details: Mycobacterium tuberculosis, H37R; read-out: M. tuberculosis H37R LORA (MIC)
[4] = test system: Vero Cell; assay: Vero cell cytotoxicity (IC50); format: cell-based; details: Chlorocebus sabaeus, Vero, African green monkey kidney cells
[5] = Hela cell cytotoxicity (CC50); details: human, HeLa cells (human cervical cancer cells), CC50_Hela, half of the toxic concentration
[6] = aerobic, 7H9 medium, Alamar Blue, read-out: M. tuberculosis H37Rv MABA (MIC)
[7] = wild-type H37Rv strain, two values per compound, read-out: MABA MIC vs. H37Rv

Compound | MIC [1] [µg/mL] | MIC [2, 6] [µg/mL] | MIC [3] [µg/mL] | IC50 [4] [µg/mL] | CC50 [5] [µg/mL] | inhibitory activity against M. tuberculosis H37Rv, aerobic (MABA) (in words) [2] | MIC [2, 7] [µM] | MABA MIC vs. H37Rv ([2]; wild-type H37Rv strain, two values per compound) [µM]
COc1ncc(-c2ccc(F)cc2)cc1C(c1ccccc1)C(O)(CCN(C)C)c1cccc2ccccc12 (centres unmarked) [Compound 91, 4-(dimethylamino)-1-(5-(4-fluorophenyl)-2-methoxypyridin-3-yl)-2-(naphthalen-1-yl)-1-phenylbutan-2-ol] | 0.0312 | 0.34 | 0.71 (≈ 1.36 µM) | > 50 | > 64 |  |  | 
COc1ncc(-c2ccccc2Cl)cc1C(c1ccccc1)C(O)(CCN(C)C)c1cccc2ccccc12 (centres unmarked) [Compound 107] | 0.5 | 1.17 | 3.03 (≈ 5.64 µM) | > 50 | > 64 |  |  | 
COc1ncc(-c2ccc(Cl)cc2)cc1C(c1ccccc1)C(O)(CCN(C)C)c1cccc2ccccc12 (centres unmarked) [Compound 115, 1-(5-(4-chlorophenyl)-2-methoxypyridin-3-yl)-4-(dimethylamino)-2-(naphthalen-1-yl)-1-phenylbutan-2-ol] | 0.0156 | 0.08 | 0.56 (≈ 1.04 µM) | > 50 | > 64 | comparable to that of the marketed anti-TB drug, Bedaquiline | 0.06 | 
COc1ncc(-c2ccccc2Br)cc1C(c1ccccc1)C(O)(CCN(C)C)c1cccc2ccccc12 (centres unmarked) [Compound 125, 1-(5-(2-bromophenyl)-2-methoxypyridin-3-yl)-4-(dimethylamino)-2-(naphthalen-1-yl)-1-phenylbutan-2-ol] | 0.5 | 1.84 | 1.89 (≈ 3.25 µM) | > 32 | > 64 |  |  | 
COc1ncc(-c2cccc(Br)c2)cc1C(c1ccccc1)C(O)(CCN(C)C)c1cccc2ccccc12 (centres unmarked) [Compound 129, 1-(5-(3-bromophenyl)-2-methoxypyridin-3-yl)-4-(dimethylamino)-2-(naphthalen-1-yl)-1-phenylbutan-2-ol] | 0.5 | 1.88 | 2.57 (≈ 4.42 µM) | > 32 | > 64 |  |  | 
COc1ncc(-c2ccc(Br)cc2)cc1C(c1ccccc1)C(O)(CCN(C)C)c1cccc2ccccc12 (centres unmarked) [Compound 133, 1-(5-(4-bromophenyl)-2-methoxypyridin-3-yl)-4-(dimethylamino)-2-(naphthalen-1-yl)-1-phenylbutan-2-ol] | 0.0156 | 0.22 | 0.22 (≈ 0.378 µM) | > 32 | > 64 | comparable to that of the marketed anti-TB drug, Bedaquiline | 0.12 | 0.10
COc1ncc(-c2ccsc2)cc1C(c1ccccc1)C(O)(CCN(C)C)c1cccc2ccccc12 (centres unmarked) [Compound 136, 4-(dimethylamino)-1-(2-methoxy-5-(thiophen-3-yl)pyridin-3-yl)-2-(naphthalen-1-yl)-1-phenylbutan-2-ol] | 0.0312 | 0.35 | 0.79 (≈ 1.55 µM) | > 50 | > 64 |  |  | 
COc1ncc(-c2cccs2)cc1C(c1ccccc1)C(O)(CCN(C)C)c1cccc2ccccc12 (centres unmarked) [Compound 141, 4-(dimethylamino)-1-(2-methoxy-5-(thiophen-2-yl)pyridin-3-yl)-2-(naphthalen-1-yl)-1-phenylbutan-2-ol] | ≤ 0.0625 | 0.93 | 1.44 (≈ 2.83 µM) | 24.4 (≈ 47.9 µM) | > 64 |  |  | 
COc1ncc(-c2ccsn2)cc1C(c1ccccc1)C(O)(CCN(C)C)c1cccc2ccccc12 (centres unmarked) [Compound 145, 4-(dimethylamino)-1-(5-(isothiazol-3-yl)-2-methoxypyridin-3-yl)-2-(naphthalen-1-yl)-1-phenylbutan-2-ol] | 0.0625 | 0.97 | 1.57 (≈ 3.08 µM) | 25.1 (≈ 49.2 µM) | 12.7 (≈ 24.8 µM) |  |  | 
COc1ncc(-c2cccc(C#N)c2)cc1C(c1ccccc1)C(O)(CCN(C)C)c1cccc2ccccc12 (centres unmarked) [Compound 153, 3-(5-(4-(dimethylamino)-2-hydroxyl-2-(naphthalen-1-yl)-1-phenylbutyl)-6-methoxypyridin-3-yl)-benzonitrile] | 0.25 | 0.96 | 2.54 (≈ 4.81 µM) | > 32 | > 64 |  |  | 
COc1ncc(-c2ccc(C#N)cc2)cc1C(c1ccccc1)C(O)(CCN(C)C)c1cccc2ccccc12 (centres unmarked) [Compound 157, 4-(5-(4-(dimethylamino)-2-hydroxyl-2-(naphthalen-1-yl)-1-phenylbutyl)-6-methoxypyridin-3-yl)-benzonitrile] | 0.0312 | 0.44 | 0.77 (≈ 1.46 µM) | > 32 | > 64 |  |  | 
COc1ncc(-c2cscn2)cc1C(c1ccccc1)C(O)(CCN(C)C)c1cccc2ccccc12 (centres unmarked) [Compound 161, 4-(dimethylamino)-1-(2-methoxy-5-(thiazol-4-yl)pyridin-3-yl)-2-(naphthalen-1-yl)-1-phenylbutan-2-ol] | 0.125 | 1.6 | 4.24 (≈ 8.32 µM) | 25.1 (≈ 49.1 µM) | 14.4 (≈ 28.3 µM) |  |  | 
COc1ncc(-c2cnsc2)cc1C(c1ccccc1)C(O)(CCN(C)C)c1cccc2ccccc12 (centres unmarked) [Compound 165, 4-(dimethylamino)-1-(5-(isothiazol-4-yl)-2-methoxypyridin-3-yl)-2-(naphthalen-1-yl)-1-phenylbutan-2-ol] | 0.25 | 1.98 | 3.94 (≈ 7.73 µM) | 26.3 (≈ 51.6 µM) | 28.8 (≈ 56.5 µM) |  |  | 
COc1ncc(-c2nccs2)cc1C(c1ccccc1)C(O)(CCN(C)C)c1cccc2ccccc12 (centres unmarked) [Compound 169, 4-(dimethylamino)-1-(2-methoxy-5-(thiazol-2-yl)pyridin-3-yl)-2-(naphthalen-1-yl)-1-phenylbutan-2-ol] | 0.25 | 1.73 | 4.95 (≈ 9.71 µM) | 25.9 (≈ 50.7 µM) | 19.3 (≈ 37.8 µM) |  |  | 
COc1ncc(-c2cncs2)cc1C(c1ccccc1)C(O)(CCN(C)C)c1cccc2ccccc12 (centres unmarked) [Compound 171, 4-(dimethylamino)-1-(2-methoxy-5-(thiazol-5-yl)pyridin-3-yl)-2-(naphthalen-1-yl)-1-phenylbutan-2-ol] | 0.125 | 1.7 | 2.86 (≈ 5.61 µM) | 25.4 (≈ 49.7 µM) | 14.3 (≈ 28.2 µM) |  |  | 
COc1ncc(C(C)C)cc1C(c1ccccc1)C(O)(CCN(C)C)c1cccc2ccccc12 (centres unmarked) [Compound 175, 4-(dimethylamino)-1-(5-isopropyl-2-methoxypyridin-3-yl)-2-(naphthalen-1-yl)-1-phenylbutan-2-ol] | 0.25 | 1.42 | 2.83 (≈ 6.04 µM) | > 50 | 27.6 (≈ 59 µM) |  |  | 
COc1ncc(C(C)(C)C)cc1C(c1ccccc1)C(O)(CCN(C)C)c1cccc2ccccc12 (centres unmarked) [Compound 177, 1-(5-tert-butyl-2-methoxypyridin-3-yl)-4-dimethylamino-2-(naphthalen-1-yl)-1-phenylbutan-2-ol] | 0.125 | 1.74 | 1.81 (≈ 3.75 µM) | 27.6 (≈ 57.2 µM) | > 64 |  |  | 
COc1ncc(-c2ccoc2)cc1C(c1ccccc1)C(O)(CCN(C)C)c1cccc2ccccc12 (centres unmarked) [Compound 178, 4-(dimethylamino)-1-(5-(furan-3-yl)-2-methoxypyridin-3-yl)-2-(naphthalen-1-yl)-1-phenylbutan-2-ol] | 0.0312 | 0.78 | 0.88 (≈ 1.79 µM) | 25.5 (≈ 51.8 µM) | 25.8 (≈ 52.3 µM) |  |  | 
COc1ncc(-c2ccco2)cc1C(c1ccccc1)C(O)(CCN(C)C)c1cccc2ccccc12 (centres unmarked) [Compound 183, 4-(dimethylamino)-1-(5-(furan-2-yl)-2-methoxypyridin-3-yl)-2-(naphthalen-1-yl)-1-phenylbutan-2-ol] | ≤ 0.0625 | 0.5 | 1.33 (≈ 2.7 µM) | 24.5 (≈ 49.8 µM) | > 64 |  |  | 
COc1cccc(C(c2cc(-c3ccccc3)cnc2OC)C(O)(CCN(C)C)c2cc(F)cc(F)c2)c1OC (centres unmarked) [Compound 207, 2-(3,5-difluorophenyl)-1-(2,3-dimethoxyphenyl)-4-(dimethylamino)-1-(2-methoxy-5-phenylpyridin-3-yl)butan-2-ol] | ≤ 0.0625 | 0.96 | 0.99 (≈ 1.8 µM) | 25.7 (≈ 46.8 µM) | 10.3 (≈ 18.7 µM) |  |  | 
COc1cccc(C(c2cc(-c3ccccc3)cnc2OC)C(O)(CCN(C)C)c2cccc(Cl)c2)c1OC (centres unmarked) [Compound 209, 2-(3-chlorophenyl)-1-(2,3-dimethoxyphenyl)-4-(dimethylamino)-1-(2-methoxy-5-phenylpyridin-3-yl)butan-2-ol] | 0.0312 | 0.89 | 0.84 (≈ 1.54 µM) | 27.3 (≈ 49.9 µM) | 13.3 (≈ 24.3 µM) |  |  | 
COc1cccc(C(c2cc(-c3ccccc3)cnc2OC)C(O)(CCN(C)C)c2cc(Cl)cc(Cl)c2)c1OC (centres unmarked) [Compound 213, 2-(3,5-dichlorophenyl)-1-(2,3-dimethoxyphenyl)-4-(dimethylamino)-1-(2-methoxy-5-phenylpyridin-3-yl)butan-2-ol] | ≤ 0.0625 | 0.125 | 0.46 (≈ 0.791 µM) | 25.2 (≈ 43.3 µM) | > 64 |  |  | 
CCOc1ncc(-c2ccccc2)cc1C(c1ccccc1)C(O)(CCN(C)C)c1cccc2ccccc12 (centres unmarked) [Compound 217, 4-(dimethylamino)-1-(2-ethoxy-5-phenylpyridin-3-yl)-2-(naphthalen-1-yl)-1-phenylbutan-2-ol] | ≤ 0.0625 | 0.41 | 1.66 (≈ 3.21 µM) | > 32 | > 64 |  |  | 
COc1cccc(C(c2cc(-c3ccccc3)cnc2OC)C(O)(CCN(C)C)c2ccccc2)c1F (centres unmarked) [Compound 226, 4-(dimethylamino)-1-(2-fluoro-3-methoxyphenyl)-1-(2-methoxy-5-phenylpyridin-3-yl)-2-phenylbutan-2-ol] | 0.125 | 0.44 | 0.97 (≈ 1.94 µM) | 25.5 (≈ 50.9 µM) | 13.1 (≈ 26.2 µM) |  |  | 
